Reference: US20240261204A1, “ASCORBIC ACID POLYPEPTIDE DERIVATIVE, PREPARATION METHOD THEREFOR, AND APPLICATION THEREOF” (HARVEST BIOTECH CO., LTD, priority 2021, published 2024)

Legend:
[1] = test system: Blood cell; details: Toxicology in Vitro 13 (1999) 343~354
[2] = test system: Skin; details: GB17149.2-1997
[3] = molecular target: T1, tyrosinase (Mus musculus, UniProt P11344); assay: Enzyme activity test for tyrosinase in α-MSH-induced B16 cells; format: cell-based; details: 24.25 μM/10 ppm; inducer 0.1 μg/mL (63 nM) α-MSH
T1 construct: endogenous in cells; host or cells: B16 mouse melanoma cells
T1 sequence (P11344 19-533): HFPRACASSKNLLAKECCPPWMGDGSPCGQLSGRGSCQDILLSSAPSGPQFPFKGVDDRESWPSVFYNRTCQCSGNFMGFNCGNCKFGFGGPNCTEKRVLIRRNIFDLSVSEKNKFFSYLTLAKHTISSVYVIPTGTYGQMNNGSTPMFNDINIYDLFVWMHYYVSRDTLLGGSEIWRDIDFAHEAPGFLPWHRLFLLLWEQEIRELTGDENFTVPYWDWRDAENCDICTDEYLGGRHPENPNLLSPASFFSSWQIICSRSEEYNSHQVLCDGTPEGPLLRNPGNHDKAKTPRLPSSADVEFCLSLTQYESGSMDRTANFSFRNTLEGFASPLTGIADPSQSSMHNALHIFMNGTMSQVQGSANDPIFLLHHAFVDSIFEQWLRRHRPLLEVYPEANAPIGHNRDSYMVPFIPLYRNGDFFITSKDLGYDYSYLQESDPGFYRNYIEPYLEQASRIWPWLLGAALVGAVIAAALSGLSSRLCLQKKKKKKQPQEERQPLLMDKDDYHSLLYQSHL
Protocol: (§1) A method for in vitro testing whitening efficacy for B16 mouse melanoma cells was designed according to Association Standard T/SHRH 021-2019 for cosmetics whitening efficacy test, in combination with NCBI and CNKI literature research:
Cell samples having been treated by an inducer (α-MSH) and a to-be-tested substance were placed in a 96-well cell culture plate, for repeated freeze-thawing lysis. To each well 100 μL of 0.1˜0.5% levodopa was added, incubation was performed in a 37° C. cell incubator for about 2 h. the absorbancy (OD) value was measured at 450 nm wavelength.

[4] = test system: Human immortalized keratinocytes HaCaT; details: about 24 μM/10 ppm; UVA 15 J/cm^2
Protocol: The plate was placed under a specific ultraviolet device, and UVA irradiation dose was 15 J/cm^2. After the induction was completed, the drug-containing PBS was removed, and replaced with a culture medium containing the to-be-tested sample, and they were placed in a carbon dioxide incubator.
ROS detection: after 24 h, a certain amount of DCFH-DA working solution was used in replacement. Incubation was performed in the dark for 15˜30 min. Washing was performed for 3˜5 times with serum-free culture medium. 100 μL of serum-free culture medium was added.
Cell viability detection: after 24 h, a serum-free culture medium containing 10% of CCK-8 was used in replacement. After incubation of 2˜4 h in a carbon dioxide incubator, an OD value was detected at 450 nm wavelength.
HaCat with damage induced by a certain dose of UVA was chosen, to construct a keratinocyte UVA damage cell model.

[5] = test system: Skin; assay: Efficacy for actual volunteer population (skin elasticity and skin tone, CK instrument); format: in vivo, human; details: 20 ppm in basic cream, whole face; 14th and 28th days
Excerpt: Test population: experimental group of 15 people, placebo group of 15 people (31-54 years old, female).
Method of use: volunteers used the cream once every morning and evening, with 1 g per use, and uniformly applied the cream on the whole face.
Test instrument: CK instrument.
Test method: using cutometer and Colorimeter probes of the CK instrument to respectively perform a skin elasticity test and a skin tone test on a random side cheek of each volunteer, in a constant-temperature and constant-humidity environment, […]

[6] = test system: human primary fibroblasts FB; assay: Synthesis test of type I collagen of fibroblast; format: cell-based; details: 24.25 μM/10 ppm; FB supernatant, ELISA
Protocol: According to Anti-wrinkly and Firming Lifting Efficacy Test of Cosmetics—In vitro Test Method of Collagen I Contents with fibroblasts (Association Standard T/SHRH 032-2020), human primary fibroblasts FB were used to measure influence of each raw material group on collagen secretion of FB at a concentration (24.25 μM/10 ppm).
The plate was placed in a carbon dioxide incubator for incubation for 24 h+2 h. After incubation was finished, 200 μL of cell culture supernatant was collected per well in a 1.5 mL sterile centrifuge tube, and stored frozen in an ultra-low temperature freezer at −80° C.
Human type I collagenase immunization kit was used for ELISA detection. First, a standard was used for detection and a standard curve was plotted, and then a collagen content contained in the fibroblast supernatant diluted at an appropriate ratio was measured.

[7] = test system: HFF human foreskin fibroblast; assay: Fibroblast anti-aging repair test under UVA photoaging stress; format: cell-based; details: about 24 μM/10 ppm; UVA 5 J/cm^2
Protocol: 100 μL of serum-free culture medium was added.
HYP (cell lysate) content detection: a hydroxyproline (HYP) content detection kit was used. First, a HYP standard was used for detection and a standard curve was plotted, and then a HYP […] content contained in the fibroblast lysate diluted at an appropriate ratio was measured.
Type I collagen content detection: human type I collagenase (Col I) immunization kit was used for ELISA detection. First, a type I collagen standard was used for detection and a standard curve was plotted, and then a collagen content contained in the fibroblast supernatant diluted at an appropriate ratio was measured.

[8] = test system: 3T3 cell; details: GB/T 21769-2008
[9] = test system: H2O2-induced HaCaT cells; assay: Anti-aging repair test for stratum corneum cell under oxidative stress (H2O2); format: cell-based, human; details: 24 h sample repair after H2O2 damage
Excerpt: In order to study the anti-aging repair efficacy of the raw material of the present disclosure to stratum corneum cell under oxidative stress, according to Anti-wrinkly and Firming Lifting Efficacy Test of Cosmetics—In vitro Test Method of Reactive Oxygen Species (ROS) Inhibition with keratinocytes (Association Standard T/SHRH 032-2020), oxidative damage cell models were constructed with H2O2-induced HaCaT cells, and relative proliferation rate and ROS expression quantity of the cells were respectively measured.
Washing was performed for 3˜5 times with a serum-free culture medium. 100 μL of serum-free culture medium was added.

[10] = test system: B16 mouse melanoma cells; assay: Measurement of melanin content in α-MSH-induced B16 cells; format: cell-based; details: for melanin inhibition (in words): 24.25 μM (about 10 ppm), inducer 0.1 μg/mL (63 nM) α-MSH
Protocol: as §1
Cell samples having been treated by the inducer (α-MSH) and the to-be-tested substance were placed in a 6-well cell culture plate. 0.5˜2 mL of cell lysate was added. The culture plate was allowed to stand in a 65° C. constant-temperature oven for 2 h. Then, after the lysate was uniformly mixed, the lysate was added to a 96-well assay plate at 150 μL/well. The absorbancy (OD) value was measured at 450 nm wavelength.

[11] = test system: Human immortalized keratinocytes HaCaT; details: 24.25 μM; HaCaT cells
Protocol: It was tested whether ATP in HaCaT cells would be affected by EAC-L-carnosine. Human immortalized keratinocytes HaCaT having been treated with the test substance were fully lysed using a certain amount of cell lysate, and centrifuged at 4° C. and 12000 g for 5 min. Supernatant was taken, and cell lysis samples of each experimental group were added to a 96-well assay plate (opaque) at 20 μL/well. ATP detection solution was further added at 100 μL/well. The plate was left to stand at room temperature for 3˜5 min. Self-luminescence intensity was detected using a full-waveband plate reader.

[12] = test system: chorioallantoic membrane
[13] = test system: rabbit corneal cell SIRC; assay: SIRC corneal cell irritation test (ocular irritation SIRC model); format: cell-based
Protocol: Detection method was rabbit corneal cell SIRC cell viability test. To-be-tested cells were washed 1˜2 times with PBS. 100 μL of MEM complete medium and 10 μL of CCK-8 solution were added to each well, and placed in a carbon dioxide incubator, for incubation of 2˜4 h. The absorbancy (OD) value was measured at 450 nm wavelength. CCK-8 reagent can be replaced with MTT.

CCOC1=C(O)C(=O)O[C@@H]1[C@@H](O)COC(=O)[C@H](Cc1c[nH]cn1)NC(=O)CCN [Example 1, 3-O-ethyl ascorbic acid-L-carnosine]
Test Conclusion, Blood cell hemolysis test model [1]: pass
Test Conclusion, Skin patch test and trial test [2]: pass
tyrosinase inhibition versus EAC, L-carnosine and their physical mixture [3]: better capability of inhibiting tyrosinase
activity of keratinocytes after UVA irradiation [4]: up-regulating the activity of keratinocytes after UVA irradiation
generation of free radical ROS after UVA, HaCaT [4]: significantly inhibiting the generation of free radical ROS
hydroxyproline HYP after UVA, HaCaT [4]: significantly activating collagen precursor hydroxyproline HYP
ITA skin tone of the test group population [5]: significant trend of elevation
collagen I generation versus EAC, dipeptide monomer and their mixture [6]: more significant effect on promoting collagen generation
activity of fibroblasts after UVA irradiation [7]: significantly up-regulating the activity of fibroblasts after UVA irradiation
generation of free radical ROS after UVA, HFF [7]: significantly inhibiting the generation of free radical ROS
hydroxyproline HYP after UVA, HFF [7]: significantly activating collagen precursor hydroxyproline HYP
Test Conclusion, Phototoxicity 3T3 cell model [8]: pass
ROS expression quantity after H2O2 damage [9]: significantly down-regulate the ROS expression quantity
cell activity after H2O2 damage [9]: significantly improve cell activity
melanin inhibition (in words) ([10]; listed as EAC-L-Carnosine): significant effect of inhibiting melanin secretion
melanin inhibition (in words) ([10]; listed as EAC-L-carnosine): significantly improved capability of inhibiting final melanin
down-regulation of melanin secretion ([10]; 24.25 μM, B16 cells, α-MSH inducer): 27.85%
improvement of ATP expression compared with blank group [11]: 25.0%
HET-CAM irritation conclusion ([12]; 10 ppm solution sample): non-irritant
IS (HET-CAM) ([12]; 10 ppm solution sample, SN/T 2329-2009): 0
Test Conclusion, Ocular irritation HET-CAM model ([12]; SN329-2009): pass
SIRC irritation conclusion ([13]; 10 ppm solution sample): no irritant
CSR (SIRC cell viability) ([13]; 10 ppm solution sample, SN/T 3084.2-2014): 106.0
Test Conclusion, Ocular irritation SIRC model ([13]; OECD 491): pass
